Measurements as given in ChEMBL document CHEMBL1212814, “Polyamines in drug discovery: from the universal template approach to the multitarget-directed ligand design strategy” (J Med Chem, 2010).

Test: Inhibition of amyloid beta (1-40) aggregation by thioflavin T based fluorometric assay

| IC50 [µM] | SMILES |
| --- | --- |
| 60.3 | CN(C)[C@@H]1C(O)=C(C(N)=O)C(=O)[C@@]2(O)C(O)=C3C(=O)c4c(O)cccc4[C@@](C)(O)[C@H]3C[C@@H]12 [TETRACYCLINE] |
| 5.93 | CCN(CCCCCCNC1=CC(=O)C(NCCCCCCN(CC)Cc2ccccc2OC)=CC1=O)Cc1ccccc1OC [MEMOQUIN] |
